Assays:
Mus musculus [1] = experiment: Induction of muscle relaxation in po dosed CD-1 mouse after 30 mins by rotary drum test; assay type: functional; conditions: CD-1, po, 0.5 h
Mus musculus [2] = experiment: Anticonvulsant activity in po dosed CD-1 mouse assessed as protection against pentylenetetrazole-induced convulsion; assay type: functional; conditions: CD-1, po
Mus musculus [3] = experiment: Potentiation of chlorprothixene-induced sedative effect in po dosed CD-1 mouse assessed as loss of righting reflex; assay type: functional; conditions: CD-1, po
Mus musculus [4] = experiment: Antianxiety activity in po dosed CD-1 mouse assessed as inhibition of foot shock-induced aggression after 30 mins relative to control; assay type: functional; conditions: CD-1, po, 0.5 h
Mus musculus [5] = experiment: Potentiation of hexobarbital-induced sedative effect in po dosed CD-1 mouse assessed as loss of righting reflex after 30 secs; assay type: functional; conditions: CD-1, po
Mus musculus [6] = experiment: Anticonvulsant activity in po dosed CD-1 mouse assessed as protection against strychnine-induced convulsion after 30 mins; assay type: functional; conditions: CD-1, po, 0.5 h
Mus musculus [7] = experiment: Anticonvulsant activity in po dosed CD-1 mouse assessed as protection against maximal electroshock-induced convulsion; assay type: functional; conditions: CD-1, po
Mus musculus [8] = experiment: Acute toxicity in po dosed CD-1 mouse assessed as mortality after 24 hrs; assay type: organism-based; conditions: in vivo

Structure (SMILES) | ED50 (Mus musculus [1]) [mg/kg] | ED50 (Mus musculus [2]) [mg/kg] | ED50 (Mus musculus [3]) [mg/kg] | ED50 (Mus musculus [4]) [mg/kg] | ED50 (Mus musculus [5]) [mg/kg] | ED50 (Mus musculus [6]) [mg/kg] | ED50 (Mus musculus [7]) [mg/kg] | ED50 (Mus musculus [8]) [mg/kg]
CCCN/C=C1\NC2CN=C(c3ccccc3)c3cc(Cl)ccc3N2C1=O (stereo unspecified) | 2.8 | 1.55 | 2.6 | 0.92 | 3.9 | > 50 | 4 | > 1000
CCCCN/C=C1\N=C2CN=C(c3ccccc3)c3cc(Cl)ccc3N2C1=O | 24 | 1.15 | 1.8 | 3.35 | 0.66 | 17 | 12.5 | > 1000
O=C1/C(=C/N2CCNCC2)N=C2CN=C(c3ccccc3)c3cc(Cl)ccc3N12 | > 50 | 1.95 | 23 | > 20 | 7.5 | > 50 | > 50 | > 1000
O=C1/C(=C/N2CCCCC2)N=C2CN=C(c3ccccc3)c3cc(Cl)ccc3N12 | – | 16 | > 50 | > 20 | 1 | > 50 | > 50 | > 1000
CN1CCN(/C=C2\N=C3CN=C(c4ccccc4F)c4cc([N+](=O)[O-])ccc4N3C2=O)CC1 | 1.5 | 0.13 | 1.6 | 0.26 | 0.8 | 0.46 | 1.2 | > 1000
O=C1/C(=C/NC2CCCCC2)N=C2CN=C(c3ccccc3)c3cc(Cl)ccc3N12 | – | 2.35 | 6.2 | 1.4 | 8.3 | 15 | 8.5 | > 1000
CC(C)N1CCN(/C=C2\N=C3CN=C(c4ccccc4)c4cc(Cl)ccc4N3C2=O)CC1 | 12 | 1.25 | 6.4 | 2.1 | 6.6 | 5.8 | 7 | > 1000
CN/C=C1\N=C2CN=C(c3ccccc3)c3cc(Cl)ccc3N2C1=O | – | – | > 50 | 5.3 | > 50 | > 50 | – | > 1000
CN1CCN(/C=C2\N=C3CN=C(c4ccccc4)c4cc([N+](=O)[O-])ccc4N3C2=O)CC1 | 8.6 | 0.92 | 4.5 | 2.2 | 3.6 | 6.6 | 4.2 | > 1000
CN(C)CCN(C)/C=C1\N=C2CN=C(c3ccccc3)c3cc(Cl)ccc3N2C1=O | > 50 | – | > 50 | – | > 50 | > 50 | – | > 1000
CN1CCCC/C1=C1\N=C2CN=C(c3ccccc3)c3cc(Cl)ccc3N2C1=O | > 50 | – | – | 20 | – | – | > 50 | > 1000
O=C1/C(=C/c2ccccc2)N=C2CN=C(c3ccccc3)c3cc(Cl)ccc3N12 | – | > 50 | – | – | > 50 | > 50 | – | > 1000
N/C=C1\N=C2CN=C(c3ccccc3)c3cc(Cl)ccc3N2C1=O | > 50 | 7.1 | 4.3 | – | 1.65 | > 50 | > 50 | > 1000
CN1CCN(/C=C2\N=C3CN=C(c4ccccc4Cl)c4cc(Cl)ccc4N3C2=O)CC1 | 0.78 | 0.165 | 1.6 | 0.2 | 0.074 | 1.8 | 2.1 | > 1000
CN1CCN(/C=C2\N=C3CN=C(c4ccccc4)c4cc(Cl)ccc4N3C2=O)CC1 | 4.2 | 0.9 | 4.6 | 2.65 | 4.9 | 7.1 | 2.1 | > 1000
CCN/C=C1\N=C2CN=C(c3ccccc3Cl)c3cc(Cl)ccc3N2C1=O | 11.5 | 0.39 | 9.6 | 1 | 0.27 | 25 | 18 | > 1000
O=C1/C(=C/N2CCN(CC3CC3)CC2)N=C2CN=C(c3ccccc3)c3cc(Cl)ccc3N12 | 6.2 | 3.5 | 25 | 4.65 | 30 | 30 | 10.5 | > 1000
O=C1/C(=C/N2CCN(c3ccccc3)CC2)N=C2CN=C(c3ccccc3)c3cc(Cl)ccc3N12 | > 50 | 26 | > 50 | > 50 | > 50 | > 50 | > 50 | > 1000

Structure (SMILES) | ED50 (Mus musculus [1]) [mg/kg] | ED50 (Mus musculus [2]) [mg/kg] | ED50 (Mus musculus [3]) [mg/kg] | ED50 (Mus musculus [4]) [mg/kg] | ED50 (Mus musculus [5]) [mg/kg] | ED50 (Mus musculus [6]) [mg/kg] | ED50 (Mus musculus [7]) [mg/kg] | ED50 (Mus musculus [8]) [mg/kg]
CN1CCN(/C=C2\N=C3CN=C(c4ccccc4F)c4cc(Cl)ccc4N3C2=O)CC1 | 2.6 | 0.115 | 1.35 | 0.34 | 0.21 | 1.25 | 0.27 | > 1000
CCCN1CCN(/C=C2\N=C3CN=C(c4ccccc4)c4cc(Cl)ccc4N3C2=O)CC1 | 1.1 | 1 | 3.2 | 1.3 | 3.6 | 6.4 | 2.7 | > 1000
CCCCN1CCN(/C=C2\N=C3CN=C(c4ccccc4)c4cc(Cl)ccc4N3C2=O)CC1 | 9 | 2 | > 50 | 1.5 | 44 | 24 | 20.5 | > 1000
CCCN/C=C1\N=C2CN=C(c3ccccc3Cl)c3cc(Cl)ccc3N2C1=O | 8 | 1 | 5.6 | 2.4 | 0.06 | > 25 | > 30 | > 1000
CNC1=Nc2ccc(Cl)cc2C(c2ccccc2)=[N+]([O-])C1 [CHLORDIAZEPOXIDE] | 6.8 | 1.9 | 4 | 7 | 64 | 5 | 8 | –
CCN1CCN(/C=C2\N=C3CN=C(c4ccccc4Cl)c4cc(Cl)ccc4N3C2=O)CC1 | 0.56 | 0.087 | 1.2 | 0.5 | 2.5 | 2.3 | 2.2 | > 1000
CN(C)/C=C1\N=C2CN=C(c3ccccc3)c3cc(Cl)ccc3N2C1=O | > 50 | 5 | > 50 | 14 | > 50 | > 50 | 42 | > 1000
O=CN1CCN(/C=C2\N=C3CN=C(c4ccccc4)c4cc(Cl)ccc4N3C2=O)CC1 | – | – | > 50 | > 20 | – | – | – | > 1000
CN(C)c1ccc(/C=C2\N=C3CN=C(c4ccccc4)c4cc(Cl)ccc4N3C2=O)cc1 | > 50 | > 50 | – | > 20 | > 50 | > 50 | – | > 1000
CCN1CCN(/C=C2\N=C3CN=C(c4ccccc4F)c4cc(Cl)ccc4N3C2=O)CC1 | 0.7 | 0.155 | 2.35 | 0.48 | 2.8 | 1.6 | 1.55 | > 1000
CN1CCN(/C=C2\N=C3CN=C(c4ccccc4Cl)c4cc([N+](=O)[O-])ccc4N3C2=O)CC1 [LOPRAZOLAM] | 2.2 | 0.028 | 1.1 | 0.42 | 1 | 0.41 | 0.76 | > 1000
C/C(=C1/N=C2CN=C(c3ccccc3)c3cc(Cl)ccc3N2C1=O)N1CCNCC1 | > 50 | 4 | > 50 | > 20 | 5.2 | > 50 | 14 | > 1000
CCN1CCN(/C=C2\N=C3CN=C(c4ccccc4Cl)c4cc([N+](=O)[O-])ccc4N3C2=O)CC1 | 0.46 | 0.15 | 0.99 | 0.34 | 0.8 | 2.8 | 2.8 | > 1000
CCN1CCN(/C=C2\N=C3CN=C(c4ccccc4F)c4cc([N+](=O)[O-])ccc4N3C2=O)CC1 | 0.37 | 0.18 | 4 | 0.64 | 0.72 | 3.75 | 2.6 | > 1000
C=CCN1CCN(/C=C2\N=C3CN=C(c4ccccc4)c4cc(Cl)ccc4N3C2=O)CC1 | 13 | 21 | 18 | 2.3 | 25 | > 50 | 13.5 | > 1000
CCN1CCN(/C=C2\N=C3CN=C(c4ccccc4)c4cc(Cl)ccc4N3C2=O)CC1 | 1.6 | 0.48 | 5 | 0.94 | 1.1 | 5.5 | 2.2 | > 1000
CCN/C=C1\N=C2CN=C(c3ccccc3)c3cc(Cl)ccc3N2C1=O | 1.8 | 4 | > 10 | 1.45 | 7.2 | > 50 | 10 | > 1000
O=C1/C(=C/NCCO)N=C2CN=C(c3ccccc3)c3cc(Cl)ccc3N12 | 2.6 | – | – | 1.5 | 3.6 | 16 | 9.5 | > 1000

— ChEMBL document CHEMBL3244013, “Central nervous system activity of a novel class of annelated 1,4-benzodiazepines, aminomethylene-2,4-dihydro-1H-imidazo[1,2-a][1,4]benzodiazepin-1-ones” (J Med Chem, 1977)
